Where two headings read alike, the source gives them in different places.
Experiments:
PCP receptor = assay: Experiment of binding to PCP receptor: competitive binding with [3H] MK-801, rat cerebral cortex membrane preparation; details: for IC50: [3H] MK-801 2 nM, rat cerebral cortex membranes
Experimental: Experiment of Binding to PCP Receptor
MK-801 is reported to bind to PCP receptor and cause psychosis.
(§1) Male Slc: Wistar rats were used and after beheading of the rats, the brains were picked out and the cerebral cortex was fractionated. The cerebral cortex was homogenized with ice-cooled 5 mM Tris-HCl buffer (pH 7.8) in an amount 20 times as much and centrifuged at 4° C. and 27,500×g for 10 minutes. The obtained precipitate was suspended with the same buffer solution and again centrifuged. These steps were repeated three times and the obtained precipitate was suspended with the buffer solution and stored at −80° C. Immediately before the experiment, the stored suspension was thawed at room temperature and centrifuged at 4° C. and 27,500×g for 10 minutes and the obtained precipitate was suspended with the buffer solution. Further the resulting solution was diluted 2.5 times with the buffer solution and the obtained solution was used as a membrane preparation for the experiment.
For the binding experiment, 10 μL of test compounds with different concentrations and 10 μL of marked ligand [^3H] MK-801 were added to 480 μL of the above-mentioned membrane preparation sample and incubated at 25° C. for 60 minutes. The final concentration of [^3H] MK-801 was adjusted to be 2 nM. DMSO, which is a solvent, was used for measurement of the total binding quantity and 10 μM of (+)MK-801 was used for measurement of the non-specific binding quantity. After the incubation, the bonded bodies and the free bodies were separated by Whatman GF/C filter paper (manufactured by Whatman Inc.) and the filter paper was washed four times with 2.5 mL of the ice-cooled buffer solution. The filter paper was immersed in a liquid scintillation in a vial (Clear-Sol I, manufactured by Nacalai Tesque Co., Ltd.) and the radiation dose (dpm) was measured by a liquid scintillation counter. The binding inhibition ratio (%) was calculated from the measured values according to the following equation and the dose for inhibiting 50% binding (IC50) was calculated.
(§2) Binding inhibition ratio (%)=100−[(binding quantity in the presence of the test compound−non-specific binding quantity)/(total binding quantity−non-specific binding quantity)]×100

NR1/NR2B receptor [1] = molecular target: T1, NR1/NR2B receptor (Rattus norvegicus, UniProt P35439+Q00960); assay: Experiment of binding to NMDA receptor: competitive binding with [3H]-Ifenprodil, rat cerebral cortex membrane preparation; details: [3H]-Ifenprodil 5 nM, GBR-12909 3 μM, rat cerebral cortex membranes
T1 construct: the obtained solution was used as a membrane preparation for the experiment; from tissue; host or cells: rat cerebral cortex membrane preparation
T1 sequence (Q00960 27-1482, other chains not shown): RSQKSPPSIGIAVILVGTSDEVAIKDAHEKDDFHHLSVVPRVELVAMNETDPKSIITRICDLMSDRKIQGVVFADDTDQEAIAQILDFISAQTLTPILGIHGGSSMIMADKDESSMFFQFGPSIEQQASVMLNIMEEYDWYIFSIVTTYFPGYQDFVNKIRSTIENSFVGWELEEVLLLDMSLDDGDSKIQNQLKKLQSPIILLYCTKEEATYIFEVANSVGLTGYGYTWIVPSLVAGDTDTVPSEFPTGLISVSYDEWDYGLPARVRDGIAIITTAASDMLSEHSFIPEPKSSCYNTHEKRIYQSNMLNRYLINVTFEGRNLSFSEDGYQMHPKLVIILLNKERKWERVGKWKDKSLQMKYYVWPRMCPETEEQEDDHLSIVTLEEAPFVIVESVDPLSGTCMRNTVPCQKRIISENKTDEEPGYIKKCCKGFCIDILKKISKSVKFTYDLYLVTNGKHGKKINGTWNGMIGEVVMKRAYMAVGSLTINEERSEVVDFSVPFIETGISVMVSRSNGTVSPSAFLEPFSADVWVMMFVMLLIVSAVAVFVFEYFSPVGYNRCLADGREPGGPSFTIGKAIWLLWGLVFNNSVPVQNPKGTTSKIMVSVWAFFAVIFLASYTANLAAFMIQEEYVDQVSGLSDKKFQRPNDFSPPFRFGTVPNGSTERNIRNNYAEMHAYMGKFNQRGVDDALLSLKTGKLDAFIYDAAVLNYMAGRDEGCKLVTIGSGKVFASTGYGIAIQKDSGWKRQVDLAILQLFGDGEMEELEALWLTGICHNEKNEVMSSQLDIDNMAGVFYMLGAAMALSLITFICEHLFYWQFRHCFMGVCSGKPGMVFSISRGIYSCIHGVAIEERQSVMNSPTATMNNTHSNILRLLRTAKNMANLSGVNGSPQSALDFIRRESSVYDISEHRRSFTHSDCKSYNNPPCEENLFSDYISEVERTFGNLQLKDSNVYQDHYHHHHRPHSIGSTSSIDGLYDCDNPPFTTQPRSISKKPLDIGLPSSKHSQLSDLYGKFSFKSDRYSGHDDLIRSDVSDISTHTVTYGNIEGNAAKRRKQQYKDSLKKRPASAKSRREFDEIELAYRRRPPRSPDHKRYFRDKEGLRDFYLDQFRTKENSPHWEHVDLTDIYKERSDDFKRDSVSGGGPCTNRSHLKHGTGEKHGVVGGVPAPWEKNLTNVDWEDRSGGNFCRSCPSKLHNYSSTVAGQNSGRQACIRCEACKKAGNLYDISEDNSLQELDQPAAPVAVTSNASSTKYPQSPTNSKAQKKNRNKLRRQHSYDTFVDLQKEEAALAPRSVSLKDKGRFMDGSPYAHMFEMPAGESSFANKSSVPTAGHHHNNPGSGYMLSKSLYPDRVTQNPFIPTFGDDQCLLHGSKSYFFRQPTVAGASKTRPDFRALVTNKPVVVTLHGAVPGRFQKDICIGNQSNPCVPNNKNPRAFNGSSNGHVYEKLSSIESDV
Experimental: Experiment of Binding to NMDA Receptor
Competitive binding assays of the test compounds (10, 18 and 19) were carried out using Ifenprodil, which is an antagonist specific for the NR1/NR2B subtype receptor, as a ligand.
as §1, with “were killed by beheading,” for “were used and after beheading of the rats,”, “ice-cooled 50” for “ice-cooled 5”, “(pH 7.4)” for “(pH 7.8)”, “times of the cerebral cortex” for “times as much”, “diluted 10” for “diluted 2.5”
For the binding experiment, 10 μL of test compounds with different concentrations, 10 μL of [^3H]-Ifenprodil, and 10 μL GBR-12909 were added to 470 μL of the above-mentioned membrane preparation and incubated at icing temperature for 120 minutes. The final concentration of [^3H]-Ifenprodil was adjusted to be 5 nM and the final concentration of GBR-12909 was adjusted to be 3 μM. DMSO, which is a solvent, was used for measurement of the total binding quantity and 100 μM of Ifenprodil was used for measurement of the non-specific binding quantity. In this connection, GBR-12909 was added to block the binding of [^3H]-Ifenprodil to the non-polyamine-sensitive site. After the incubation, the bounded bodies and the free bodies were separated by Whatman GF/C filter paper (Whatman Inc.) and the filter paper was washed four times with 2.5 mL of the ice-cooled buffer solution. The filter paper was immersed in a liquid scintillation (Clear-Sol I, Nacalai Tesque Co., Ltd.) in a vial and the radioactivity (dpm) was measured by a liquid scintillation counter. The binding inhibition ratio (%) was calculated from the measured values according to the following equation and the dose for inhibiting 50% binding (IC50) was calculated.
as §2

ICR type male mice = assay: Analgesic effect in mouse formalin test; type: in vivo; details: for ED50: Mus musculus, injected into the vein 5 minutes before 2% formalin
Experimental: Analgesic Effect in Mouse Formalin Test
The pain behavior attributed to formalin can be classified into two time-dependent phases and mice show pain behaviors, so-called licking and biting. In the first phase, acute pain was caused within 5 minutes immediately after formalin administration, and in the second phase, inflammatory pain was caused for 20 minutes from 10 to 30 minutes after the administration. ICR type male mice (5-week old) were used for the experiment. Formalin (2%) was subcutaneously injected to the right hind paw of the mice. The test compound (18) was dissolved in a solution, DMSO:HCO50:saline=1.5:1:7.5 and injected in difference concentrations into the vein 5 minutes before the formalin administration. The pain behavior time was measured for 30 minutes after formalin administration. The pain behavior time is to be shortened in the case the test compound causes analgesic effect. The measured time is substituted in the following equation to calculate the analgesic ratio (%) and the dose for 50% efficacy (ED50) was calculated. Analgesic ratio (%)=[…]

NR1/NR2A receptor = NR1/NR2A receptor (Mus musculus, UniProt P35436+P35438); assay: Electric physiological experiment: NMDA-induced inward current in Xenopus laevis oocytes expressing NMDA receptor subunits; type: cell-based; details: NMDA 100 μM and glycine 10 μM, -60 mV
Experimental: (§3) Expression and Electric Physiological Experiment of NMDA Receptor
(§4) Messenger RNA (mRNA) was transcribed with complementary DNA (cDNA) of mouse NMDA receptor subunits and the mRNA was injected in oocytes of Xenopus Laevis. From two days after the injection, the inward current induced by NMDA was recorded by two electrode membrane potential fixation apparatus. The injection amount of the mRNA was 0.6/0.6 ng on the basis of NR1/NR2B per one oocyte to co-expression of the subunits. Solutions of the test compound (18) with different concentrations were added to the oocytes and the inward current induced by NMDA was recorded by two electrode membrane potential fixation apparatus. The extercellular solution was Mg^2+-free ND96 (NaCl 96 mM, KCl 2 mM, CaCl2 1.8 mM, and Hepes 5 mM and pH=7.5) and the potential was retained at −60 mV. The NMDA current was induced by using NMDA 100 μM and glycine 10 μM. The measured values of the recorded inward current induced by NMDA were substituted in the following equation to calculate the electric response % and the dose for inhibiting 50% (IC50) were calculated. The IC50 values for the respective NR1/NR2A, C, and D receptors were calculated. Electric response (%)=(inward current induced by NMDA in the presence of the test compound/inward current induced by NMDA in the absence of the test compound)×100

NR1/NR2B receptor [2] = molecular target: NR1/NR2B receptor (Mus musculus, UniProt P35438+Q01097); assay: as above; type: cell-based
Sequence of NR1/NR2B receptor (Mus musculus, UniProt P35438+Q01097) (Q01097 27-1482, other chains not shown): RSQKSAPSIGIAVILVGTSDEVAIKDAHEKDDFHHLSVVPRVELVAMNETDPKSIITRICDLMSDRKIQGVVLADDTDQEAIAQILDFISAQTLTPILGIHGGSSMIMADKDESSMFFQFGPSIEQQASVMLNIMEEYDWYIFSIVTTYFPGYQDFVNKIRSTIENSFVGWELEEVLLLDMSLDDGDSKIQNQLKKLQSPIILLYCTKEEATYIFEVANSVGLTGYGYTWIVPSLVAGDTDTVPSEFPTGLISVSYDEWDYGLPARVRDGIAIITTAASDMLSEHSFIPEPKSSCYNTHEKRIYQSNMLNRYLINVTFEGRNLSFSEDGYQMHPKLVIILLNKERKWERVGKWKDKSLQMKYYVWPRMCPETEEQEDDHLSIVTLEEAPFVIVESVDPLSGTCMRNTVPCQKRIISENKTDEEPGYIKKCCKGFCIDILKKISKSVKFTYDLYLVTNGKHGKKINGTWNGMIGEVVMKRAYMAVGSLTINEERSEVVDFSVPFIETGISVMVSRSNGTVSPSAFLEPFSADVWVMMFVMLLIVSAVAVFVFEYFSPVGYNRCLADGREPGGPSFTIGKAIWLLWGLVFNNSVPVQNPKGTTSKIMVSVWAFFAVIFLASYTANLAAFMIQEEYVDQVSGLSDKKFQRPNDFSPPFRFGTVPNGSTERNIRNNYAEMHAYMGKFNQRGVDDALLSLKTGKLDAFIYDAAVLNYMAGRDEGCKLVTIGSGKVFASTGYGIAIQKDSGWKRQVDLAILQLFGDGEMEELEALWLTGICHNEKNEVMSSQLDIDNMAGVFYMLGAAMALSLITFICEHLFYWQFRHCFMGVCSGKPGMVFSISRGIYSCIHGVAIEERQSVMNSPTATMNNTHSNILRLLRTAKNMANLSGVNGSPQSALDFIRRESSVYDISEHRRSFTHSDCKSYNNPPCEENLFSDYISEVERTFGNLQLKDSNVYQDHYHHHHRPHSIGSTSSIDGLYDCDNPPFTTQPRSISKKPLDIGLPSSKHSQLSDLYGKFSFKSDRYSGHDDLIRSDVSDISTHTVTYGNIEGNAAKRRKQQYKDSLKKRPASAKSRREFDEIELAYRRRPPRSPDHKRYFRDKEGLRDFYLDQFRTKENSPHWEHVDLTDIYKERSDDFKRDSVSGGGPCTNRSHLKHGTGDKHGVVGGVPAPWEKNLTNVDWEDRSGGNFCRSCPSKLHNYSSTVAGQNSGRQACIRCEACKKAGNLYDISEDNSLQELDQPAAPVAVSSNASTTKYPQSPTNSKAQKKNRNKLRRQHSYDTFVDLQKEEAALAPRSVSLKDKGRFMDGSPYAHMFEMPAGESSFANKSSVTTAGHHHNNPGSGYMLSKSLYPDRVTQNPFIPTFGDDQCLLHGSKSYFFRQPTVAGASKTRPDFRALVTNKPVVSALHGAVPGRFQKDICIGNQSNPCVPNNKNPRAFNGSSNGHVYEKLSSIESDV
Experimental: as §3, §4

NR1/NR2C receptor = NR1/NR2C receptor (Mus musculus, UniProt P35438+Q01098); assay: as above; type: cell-based; details: NMDA 100 μM and glycine 10 μM, -60 mV
Sequence of NR1/NR2C receptor (Q01098 20-1239, other chains not shown): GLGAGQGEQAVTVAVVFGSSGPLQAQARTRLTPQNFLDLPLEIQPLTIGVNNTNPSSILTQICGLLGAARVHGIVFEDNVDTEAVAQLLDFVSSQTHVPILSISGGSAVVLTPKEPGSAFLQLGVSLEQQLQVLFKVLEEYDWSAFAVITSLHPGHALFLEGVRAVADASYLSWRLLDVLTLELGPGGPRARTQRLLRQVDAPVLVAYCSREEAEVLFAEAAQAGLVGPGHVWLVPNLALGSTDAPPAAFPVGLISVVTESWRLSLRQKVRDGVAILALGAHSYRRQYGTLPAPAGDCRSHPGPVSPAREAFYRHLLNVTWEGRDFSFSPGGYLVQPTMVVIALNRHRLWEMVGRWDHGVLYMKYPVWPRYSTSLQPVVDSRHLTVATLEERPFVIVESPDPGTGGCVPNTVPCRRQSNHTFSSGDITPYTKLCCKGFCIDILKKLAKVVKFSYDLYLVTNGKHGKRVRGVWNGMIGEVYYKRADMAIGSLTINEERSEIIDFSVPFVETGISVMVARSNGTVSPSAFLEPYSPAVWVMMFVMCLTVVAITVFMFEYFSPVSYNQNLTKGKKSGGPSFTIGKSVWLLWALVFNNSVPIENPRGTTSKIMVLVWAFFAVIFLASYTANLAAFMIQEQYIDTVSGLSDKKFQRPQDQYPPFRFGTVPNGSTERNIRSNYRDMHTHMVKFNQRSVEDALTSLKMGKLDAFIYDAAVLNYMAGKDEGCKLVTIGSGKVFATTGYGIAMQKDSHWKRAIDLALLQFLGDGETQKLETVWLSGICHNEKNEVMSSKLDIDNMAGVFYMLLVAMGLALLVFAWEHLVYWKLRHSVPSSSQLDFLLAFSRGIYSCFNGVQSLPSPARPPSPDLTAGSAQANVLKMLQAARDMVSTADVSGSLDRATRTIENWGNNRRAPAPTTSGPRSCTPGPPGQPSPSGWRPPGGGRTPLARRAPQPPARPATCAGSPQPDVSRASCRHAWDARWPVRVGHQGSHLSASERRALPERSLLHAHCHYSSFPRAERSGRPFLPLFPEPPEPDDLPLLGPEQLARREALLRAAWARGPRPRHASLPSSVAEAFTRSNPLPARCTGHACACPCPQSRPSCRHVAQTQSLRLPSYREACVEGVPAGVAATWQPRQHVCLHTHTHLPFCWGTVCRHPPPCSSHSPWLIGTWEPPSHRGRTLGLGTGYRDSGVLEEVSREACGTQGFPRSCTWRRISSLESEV
Experimental: as §3, §4

NR1/NR2D receptor = NR1/NR2D receptor (Mus musculus, UniProt P35438+Q03391); assay: as above; type: cell-based; details: NMDA 100 μM and glycine 10 μM, -60 mV
Experimental: as §3, §4

Structure (SMILES)	IC50 (PCP receptor)	competition with MK-801 at the PCP receptor (in words) (PCP receptor)	IC50 (NR1/NR2B receptor [1])	also measured
CC(C(O)c1ccc(O)cc1)N1CCC(O)(c2ccccc2)CC1 (racemic) [CP-101606, reference compound]	13 µM			
O=C(CCCN1CCC(O)(Cc2ccc(OC(F)(F)F)cc2)CC1)c1ccc(O)cc1 [Compound 10]	20 µM	not competitive with MK-801	0.016 µM	
O=C(CCCN1CC=C(c2ccc(Cl)cc2)CC1)c1ccc(O)cc1 [Compound 32]			0.003 µM	

Further lines, with some results ahead:

IC50 (PCP receptor)	competition with MK-801 at the PCP receptor (in words) (PCP receptor)	IC50 (NR1/NR2B receptor [1])	Structure (SMILES)	also measured
3 µM	not competitive with MK-801	0.004 µM	Cc1ccccc1CC1=CCN(CCCC(=O)c2ccc(O)cc2)CC1 [Compound 18]	ED50 (ICR type male mice; acute pain within 5 minutes, read-out: ED50, the first phase): 1.1 mg/kg; ED50 (ICR type male mice; inflammatory pain 10 to 30 minutes, read-out: ED50, the second phase): 0.7 mg/kg; analgesic effect (in words) (ICR type male mice; mouse, in vivo): confirmed; IC50 (NR1/NR2A receptor): > 30 µM; antagonistic effect on NR1/NR2 subfamilies (in words) (NR1/NR2B receptor [2]): specific antagonistic effect on the NR1/NR2B receptor; IC50 (NR1/NR2B receptor [2]; NMDA 100 μM and glycine 10 μM, -60 mV, Xenopus oocytes): 4.6 µM; IC50 (NR1/NR2C receptor): > 30 µM; IC50 (NR1/NR2D receptor): > 30 µM
10 µM	not competitive with MK-801	0.002 µM	O=C(CCCN1CC=C(Cc2ccc(F)cc2)CC1)c1ccc(O)cc1 [Compound 19]	

Source: patent publication US7786140B2, “Piperidine derivative having NMDA receptor antagonistic activity” (Shionogi & Co., Ltd., priority 2003, dated 2010)
